Source: ChEMBL document CHEMBL5291721, “A preclinical secondary pharmacology resource illuminates target-adverse drug reaction associations of marketed drugs” (Nat Commun, 2023)

Assays:
Adenosine receptor A2a = Adenosine receptor A2a (Homo sapiens, UniProt P29274)
[1] = target: T1, Alpha-2B adrenergic receptor (Homo sapiens, UniProt P18089)
T1 sequence (P18089 whole entry): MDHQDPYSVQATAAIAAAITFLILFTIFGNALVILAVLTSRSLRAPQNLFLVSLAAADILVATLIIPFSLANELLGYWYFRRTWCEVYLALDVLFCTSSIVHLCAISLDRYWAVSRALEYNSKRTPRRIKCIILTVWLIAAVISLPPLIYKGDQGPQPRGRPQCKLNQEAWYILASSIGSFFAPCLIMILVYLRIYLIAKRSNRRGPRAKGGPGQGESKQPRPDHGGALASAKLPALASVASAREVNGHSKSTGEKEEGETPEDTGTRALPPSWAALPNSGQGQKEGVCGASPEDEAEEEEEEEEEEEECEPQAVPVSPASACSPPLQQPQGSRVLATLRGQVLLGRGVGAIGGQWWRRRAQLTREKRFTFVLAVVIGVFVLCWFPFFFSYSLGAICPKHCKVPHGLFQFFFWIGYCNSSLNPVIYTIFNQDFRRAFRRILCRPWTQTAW

[2] = target: T2, Gastrin/cholecystokinin type B receptor (Homo sapiens, UniProt P32239)
T2 sequence (P32239 whole entry): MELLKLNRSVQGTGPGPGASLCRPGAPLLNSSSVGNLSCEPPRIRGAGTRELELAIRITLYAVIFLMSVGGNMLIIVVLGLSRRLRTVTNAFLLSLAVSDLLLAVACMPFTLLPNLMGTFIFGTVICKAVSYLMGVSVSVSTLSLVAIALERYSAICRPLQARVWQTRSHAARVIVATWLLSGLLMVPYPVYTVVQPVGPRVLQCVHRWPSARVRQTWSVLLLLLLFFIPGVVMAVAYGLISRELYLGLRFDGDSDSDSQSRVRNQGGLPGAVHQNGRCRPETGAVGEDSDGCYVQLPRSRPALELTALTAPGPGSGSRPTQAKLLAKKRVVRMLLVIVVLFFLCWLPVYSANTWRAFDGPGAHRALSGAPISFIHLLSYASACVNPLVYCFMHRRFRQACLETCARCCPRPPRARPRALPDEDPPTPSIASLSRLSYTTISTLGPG

[3] = target: Neuronal acetylcholine receptor subunit alpha-4 (Homo sapiens, UniProt P43681)
Endothelin-1 receptor = target: T3, Endothelin-1 receptor (Homo sapiens, UniProt P25101)
T3 sequence (P25101 whole entry): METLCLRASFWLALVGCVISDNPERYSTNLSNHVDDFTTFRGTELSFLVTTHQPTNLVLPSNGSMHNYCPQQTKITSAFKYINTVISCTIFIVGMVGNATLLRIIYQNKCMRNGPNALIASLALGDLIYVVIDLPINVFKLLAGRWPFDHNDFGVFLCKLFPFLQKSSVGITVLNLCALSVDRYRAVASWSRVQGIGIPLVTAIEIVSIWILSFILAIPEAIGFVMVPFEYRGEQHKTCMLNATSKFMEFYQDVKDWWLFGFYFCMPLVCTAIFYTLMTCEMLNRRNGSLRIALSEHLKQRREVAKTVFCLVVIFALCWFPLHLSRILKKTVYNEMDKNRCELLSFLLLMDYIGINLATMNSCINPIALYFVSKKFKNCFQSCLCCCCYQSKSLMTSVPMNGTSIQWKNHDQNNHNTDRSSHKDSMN

[4] = target: 3',5'-cyclic-AMP phosphodiesterase 4D (Homo sapiens, UniProt Q08499); type: functional
Thromboxane A2 receptor = target: T4, Thromboxane A2 receptor (Homo sapiens, UniProt P21731)
T4 sequence (P21731 whole entry): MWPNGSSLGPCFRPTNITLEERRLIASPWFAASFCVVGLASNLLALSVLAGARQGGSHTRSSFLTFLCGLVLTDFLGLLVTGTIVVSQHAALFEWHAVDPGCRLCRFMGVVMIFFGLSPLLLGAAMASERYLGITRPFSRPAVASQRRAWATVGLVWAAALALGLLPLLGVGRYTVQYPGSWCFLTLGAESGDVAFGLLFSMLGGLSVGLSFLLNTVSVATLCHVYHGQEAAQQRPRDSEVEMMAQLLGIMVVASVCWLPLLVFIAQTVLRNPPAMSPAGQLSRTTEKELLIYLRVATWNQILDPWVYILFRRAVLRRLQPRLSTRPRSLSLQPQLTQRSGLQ

[5] = target: Sodium-dependent dopamine transporter (Homo sapiens, UniProt Q01959)
[6] = target: 5-hydroxytryptamine receptor 2B (Homo sapiens, UniProt P41595); type: functional, cell-based
Glucocorticoid receptor = target: T5, Glucocorticoid receptor (Homo sapiens, UniProt P04150)
T5 sequence (P04150 whole entry): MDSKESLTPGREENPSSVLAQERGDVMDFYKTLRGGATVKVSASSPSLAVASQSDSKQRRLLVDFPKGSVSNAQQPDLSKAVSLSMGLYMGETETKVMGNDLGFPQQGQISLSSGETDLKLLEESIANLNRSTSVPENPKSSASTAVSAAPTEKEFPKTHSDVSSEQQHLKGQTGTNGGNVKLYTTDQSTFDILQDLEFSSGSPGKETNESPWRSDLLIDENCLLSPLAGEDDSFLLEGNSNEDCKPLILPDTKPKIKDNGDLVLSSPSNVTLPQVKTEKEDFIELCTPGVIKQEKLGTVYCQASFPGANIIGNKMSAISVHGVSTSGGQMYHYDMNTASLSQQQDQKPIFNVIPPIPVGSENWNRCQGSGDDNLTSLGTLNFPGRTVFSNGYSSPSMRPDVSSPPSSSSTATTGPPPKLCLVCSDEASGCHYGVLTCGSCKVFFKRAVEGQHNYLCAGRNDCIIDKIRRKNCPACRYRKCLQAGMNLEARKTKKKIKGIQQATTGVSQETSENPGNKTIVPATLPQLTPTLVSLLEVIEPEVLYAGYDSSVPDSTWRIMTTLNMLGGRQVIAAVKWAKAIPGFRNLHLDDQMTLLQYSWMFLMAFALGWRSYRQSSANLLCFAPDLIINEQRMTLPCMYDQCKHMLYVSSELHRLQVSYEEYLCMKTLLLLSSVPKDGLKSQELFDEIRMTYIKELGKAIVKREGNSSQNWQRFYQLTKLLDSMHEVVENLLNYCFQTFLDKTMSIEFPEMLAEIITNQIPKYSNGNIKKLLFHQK
Further: assay procedure not described here.

Sequence of 3',5'-cyclic-AMP phosphodiesterase 4D (Q08499 whole entry): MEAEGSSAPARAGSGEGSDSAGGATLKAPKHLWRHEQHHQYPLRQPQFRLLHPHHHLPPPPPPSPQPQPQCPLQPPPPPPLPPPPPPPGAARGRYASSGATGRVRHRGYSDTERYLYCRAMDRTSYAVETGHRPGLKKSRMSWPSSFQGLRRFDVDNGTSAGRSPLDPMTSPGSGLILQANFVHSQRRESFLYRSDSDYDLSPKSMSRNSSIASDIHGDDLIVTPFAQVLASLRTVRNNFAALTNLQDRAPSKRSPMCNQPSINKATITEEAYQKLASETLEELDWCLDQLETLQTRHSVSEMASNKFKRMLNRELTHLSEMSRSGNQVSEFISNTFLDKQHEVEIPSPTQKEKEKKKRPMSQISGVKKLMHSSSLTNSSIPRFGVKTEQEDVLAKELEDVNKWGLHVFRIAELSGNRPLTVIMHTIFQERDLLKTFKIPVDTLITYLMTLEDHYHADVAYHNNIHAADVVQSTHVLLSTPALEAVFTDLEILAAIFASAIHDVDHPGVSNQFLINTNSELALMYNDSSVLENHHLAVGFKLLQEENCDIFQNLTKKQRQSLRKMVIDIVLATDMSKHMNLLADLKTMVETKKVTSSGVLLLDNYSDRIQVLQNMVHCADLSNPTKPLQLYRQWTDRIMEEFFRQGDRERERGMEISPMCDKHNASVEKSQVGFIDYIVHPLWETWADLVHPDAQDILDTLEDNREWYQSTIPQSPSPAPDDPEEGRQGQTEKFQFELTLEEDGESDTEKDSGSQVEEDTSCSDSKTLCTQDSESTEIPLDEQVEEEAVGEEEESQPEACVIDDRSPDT
Sequence of 5-hydroxytryptamine receptor 2B (P41595 whole entry): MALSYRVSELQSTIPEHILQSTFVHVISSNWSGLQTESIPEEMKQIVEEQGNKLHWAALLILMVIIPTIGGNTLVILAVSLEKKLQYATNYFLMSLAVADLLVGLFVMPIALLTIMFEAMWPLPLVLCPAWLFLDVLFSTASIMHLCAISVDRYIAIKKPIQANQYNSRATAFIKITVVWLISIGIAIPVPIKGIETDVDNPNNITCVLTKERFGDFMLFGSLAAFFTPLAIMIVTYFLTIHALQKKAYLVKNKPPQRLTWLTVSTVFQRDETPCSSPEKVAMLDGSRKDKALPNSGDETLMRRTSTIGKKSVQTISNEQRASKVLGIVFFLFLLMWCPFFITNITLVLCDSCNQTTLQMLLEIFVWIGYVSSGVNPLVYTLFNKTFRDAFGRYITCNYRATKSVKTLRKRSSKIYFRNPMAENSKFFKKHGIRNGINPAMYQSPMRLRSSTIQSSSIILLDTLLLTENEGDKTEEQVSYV
Sequence of Neuronal acetylcholine receptor subunit alpha-4 (P43681 whole entry): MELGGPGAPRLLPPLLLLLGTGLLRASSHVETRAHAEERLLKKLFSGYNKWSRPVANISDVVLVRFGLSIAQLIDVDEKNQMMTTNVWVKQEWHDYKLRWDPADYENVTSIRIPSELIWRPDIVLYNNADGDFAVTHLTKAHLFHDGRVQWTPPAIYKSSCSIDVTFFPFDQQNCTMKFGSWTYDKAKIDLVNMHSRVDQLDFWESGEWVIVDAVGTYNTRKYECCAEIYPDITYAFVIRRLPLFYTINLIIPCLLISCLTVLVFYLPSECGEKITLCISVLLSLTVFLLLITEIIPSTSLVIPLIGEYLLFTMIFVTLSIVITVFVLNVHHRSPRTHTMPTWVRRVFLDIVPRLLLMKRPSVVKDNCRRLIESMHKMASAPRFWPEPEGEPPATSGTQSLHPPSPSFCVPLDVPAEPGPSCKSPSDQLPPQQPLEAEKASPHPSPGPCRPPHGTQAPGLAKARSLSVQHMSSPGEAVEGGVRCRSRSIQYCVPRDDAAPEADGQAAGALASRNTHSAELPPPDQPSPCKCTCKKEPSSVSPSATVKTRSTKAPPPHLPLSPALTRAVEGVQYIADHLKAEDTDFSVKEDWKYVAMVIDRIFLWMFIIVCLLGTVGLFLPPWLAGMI
Sequence of Adenosine receptor A2a (P29274 whole entry): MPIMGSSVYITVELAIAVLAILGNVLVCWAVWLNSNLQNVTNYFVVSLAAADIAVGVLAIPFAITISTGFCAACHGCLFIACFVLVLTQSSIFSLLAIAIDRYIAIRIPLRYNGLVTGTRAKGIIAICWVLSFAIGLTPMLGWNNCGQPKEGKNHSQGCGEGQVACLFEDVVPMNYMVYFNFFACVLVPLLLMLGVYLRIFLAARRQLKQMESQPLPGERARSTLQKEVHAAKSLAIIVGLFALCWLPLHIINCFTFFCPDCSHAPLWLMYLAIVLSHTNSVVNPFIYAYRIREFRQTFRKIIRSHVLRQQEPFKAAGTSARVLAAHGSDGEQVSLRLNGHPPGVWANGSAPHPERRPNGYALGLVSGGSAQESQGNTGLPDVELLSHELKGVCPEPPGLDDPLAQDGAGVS
Sequence of Sodium-dependent dopamine transporter (Q01959 whole entry): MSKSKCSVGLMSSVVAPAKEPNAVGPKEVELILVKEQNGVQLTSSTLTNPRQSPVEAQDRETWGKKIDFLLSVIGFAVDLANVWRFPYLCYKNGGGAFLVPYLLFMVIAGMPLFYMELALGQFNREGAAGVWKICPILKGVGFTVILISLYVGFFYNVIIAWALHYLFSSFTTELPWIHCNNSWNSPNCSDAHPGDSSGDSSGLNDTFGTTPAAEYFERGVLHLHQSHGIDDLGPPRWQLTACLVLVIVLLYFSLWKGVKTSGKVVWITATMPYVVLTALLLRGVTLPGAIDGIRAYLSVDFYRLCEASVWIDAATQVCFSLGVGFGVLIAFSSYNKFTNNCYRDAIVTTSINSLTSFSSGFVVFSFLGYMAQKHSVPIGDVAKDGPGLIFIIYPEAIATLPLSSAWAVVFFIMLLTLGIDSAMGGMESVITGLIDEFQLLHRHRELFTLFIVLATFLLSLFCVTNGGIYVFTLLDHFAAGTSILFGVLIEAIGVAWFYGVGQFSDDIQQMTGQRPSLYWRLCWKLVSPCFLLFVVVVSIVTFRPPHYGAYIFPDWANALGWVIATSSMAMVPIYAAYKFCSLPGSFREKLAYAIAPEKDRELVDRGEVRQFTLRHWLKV

Compound: CC/C=C\C/C=C\C/C=C\CCCCCCCC(=O)O [LINOLENIC ACID]
- AC50 (Adenosine receptor A2a): > 30 µM
- AC50 [1]: > 30 µM
- AC50 [2]: > 30 µM
- AC50 [3]: > 30 µM
- AC50 (Endothelin-1 receptor): > 30 µM
- AC50 [4]: > 30 µM
- AC50 (Thromboxane A2 receptor): > 30 µM
- AC50 [5]: > 30 µM

Compound: CC1=CC(=O)c2ccccc2C1=O [MENADIONE]
- AC50 (Adenosine receptor A2a): > 30 µM
- AC50 [1]: > 10 µM
- AC50 [3]: > 10 µM
- AC50 [6]: > 10 µM
- AC50 (Glucocorticoid receptor): > 30 µM
- AC50 [4]: > 30 µM
- AC50 (Thromboxane A2 receptor): > 10 µM
- AC50 [5]: > 10 µM

Compound: Cc1cc(-c2ccccc2)nnc1NCCN1CCOCC1 [MINAPRINE]
- AC50 (Adenosine receptor A2a): > 30 µM
- AC50 [1]: > 10 µM
- AC50 [2]: > 30 µM
- AC50 [3]: > 10 µM
- AC50 (Endothelin-1 receptor): > 30 µM
- AC50 [6]: 5.4 µM
- AC50 [4]: > 30 µM
- AC50 (Thromboxane A2 receptor): > 30 µM
- AC50 [5]: > 10 µM

Compound: CN1CCCN=C1COC(=O)C(O)(c1ccccc1)C1CCCCC1 (centres undefined) [OXYPHENCYCLIMINE]
- AC50 (Adenosine receptor A2a): > 10 µM
- AC50 [1]: > 10 µM
- AC50 [3]: > 10 µM
- AC50 [6]: > 10 µM
- AC50 (Glucocorticoid receptor): > 10 µM
- AC50 [4]: > 30 µM
- AC50 (Thromboxane A2 receptor): > 10 µM
- AC50 [5]: > 30 µM

Compound: CN1CCC2=C(C1)C(c1ccccc1)c1ccccc12 (centres undefined) [PHENINDAMINE]
- AC50 (Adenosine receptor A2a): > 10 µM
- AC50 [1]: > 10 µM
- AC50 [3]: > 10 µM
- AC50 [6]: > 10 µM
- AC50 (Glucocorticoid receptor): > 30 µM
- AC50 [4]: 8.7 µM
- AC50 (Thromboxane A2 receptor): > 10 µM
- AC50 [5]: > 30 µM

Compound: CN1C(=O)CC(c2ccccc2)C1=O (centres undefined) [PHENSUXIMIDE]
- AC50 (Adenosine receptor A2a): > 10 µM
- AC50 [1]: > 10 µM
- AC50 [3]: > 10 µM
- AC50 [6]: > 10 µM
- AC50 (Glucocorticoid receptor): > 10 µM
- AC50 [4]: > 30 µM
- AC50 (Thromboxane A2 receptor): > 10 µM
- AC50 [5]: > 10 µM

Compound: CC(Cc1ccccc1)NCCC(c1ccccc1)c1ccccc1 (centres undefined) [PRENYLAMINE]
- AC50 (Adenosine receptor A2a): > 30 µM
- AC50 [1]: 1.7 µM
- AC50 [2]: > 30 µM
- AC50 [3]: > 10 µM
- AC50 [6]: > 10 µM
- AC50 (Glucocorticoid receptor): > 30 µM
- AC50 [4]: > 30 µM
- AC50 (Thromboxane A2 receptor): > 30 µM
- AC50 [5]: 4.7 µM

Compound: Cc1nc2ccc(CN(C)c3ccc(C(=O)N[C@@H](CCC(=O)O)C(=O)O)s3)cc2c(=O)[nH]1 [RALTITREXED]
- AC50 (Adenosine receptor A2a): > 30 µM
- AC50 [1]: > 30 µM
- AC50 [2]: > 10 µM
- AC50 [3]: > 30 µM
- AC50 (Endothelin-1 receptor): > 30 µM
- AC50 [6]: > 30 µM
- AC50 [4]: > 30 µM
- AC50 (Thromboxane A2 receptor): > 30 µM
- AC50 [5]: > 30 µM

Compound: CC(=O)NS(=O)(=O)c1ccc(N)cc1 [SULFACETAMIDE]
- AC50 (Adenosine receptor A2a): > 10 µM
- AC50 [1]: > 10 µM
- AC50 [3]: > 10 µM
- AC50 [6]: > 10 µM
- AC50 (Glucocorticoid receptor): > 10 µM
- AC50 [4]: > 30 µM
- AC50 (Thromboxane A2 receptor): > 10 µM
- AC50 [5]: > 10 µM

Compound: CN1CCN(C(=O)OC2c3nccnc3C(=O)N2c2ccc(Cl)cn2)CC1 (centres undefined) [ZOPICLONE]
- AC50 (Adenosine receptor A2a): > 30 µM
- AC50 [1]: > 30 µM
- AC50 [2]: > 30 µM
- AC50 [3]: > 30 µM
- AC50 (Endothelin-1 receptor): > 30 µM
- AC50 [6]: > 10 µM
- AC50 [4]: > 30 µM
- AC50 (Thromboxane A2 receptor): > 30 µM
- AC50 [5]: > 30 µM
